# Measurements published in patent US11458203B2, “Pharmaceutical compositions comprising caffeic acid chelates” (Arizona Board of Regents, on behald of Arizona State …, priority 2017, dated 2022).
# pEC50, pIC50: −log10 of the molar value. Like-named read-outs stand apart in the source and are kept apart here.
# Legend:
# HSV1 = HSV1 plaque formation assay in Vero cells; assay type: cell-based; conditions: for pIC50: read-out: HSV1 IC50; for antiviral activity of the substance by itself (in words): component alone, not combined
# Vero cells = conditions: African green monkey, 24 h, 27000 μM
# HSV2 = HSV2 plaque formation assay in Vero cells; assay type: cell-based; conditions: FIG. 6
# Method: The antiviral assays were conducted as follows. For HSV1 and HSV2, Vero cells were grown in Dulbecco's minimal essential media containing 10% heat inactivated fetal bovine serum and antibiotic/antimycotic (ThermoFisher) in a 37° C., 5% CO2 incubator. Cells were seeded in standard 6-well tissue culture dishes. HSV1 virus was diluted to 100 plaque forming units/100 μL complete media. The virus samples were treated for 15 minutes with the indicated concentrations of the test compound/material. These treated viral samples were used to infect the confluent Vero cell monolayers. Cells were infected for 1 hour at 37° C. with occasional rocking. After 1 hour, 2 mLs of complete media was added to each well. The test compound was added to the media at the indicated concentration. The dishes were placed in the incubator for 3 days. After 3 days, the media was removed and the cells stained with 0.5% crystal violet. The number of plaques present were counted by hand and graphed as a percent relative to untreated samples.
# Zika virus = assay type: cell-based; conditions: at the concentrations tested
# reovirus type 3 = assay type: cell-based
# [1] = system: vesicular stomatitis virus (VSV); assay type: cell-based; conditions: FIG. 6
# VSV-Ebola pseudotype = assay type: cell-based, VSV-Ebola pseudotype (Zaire Ebola virus glycoprotein)
# Rhinovirus 14 = assay type: cell-based
# [2] = system: vaccinia virus (Copenhagen strain); assay type: cell-based; conditions: FIG. 6
# [3] = test compound paired with Fe^3+, FIG. 7 and FIG. 8
# [4] = Human alphaherpesvirus 1, Vero, test compound paired with Fe^3+, single dose-response trial, minimum three concentrations, FIG. 7 and FIG. 8
compound,measurement,setting,value
chicoric acid,"anti-HSV1 activity relative to caffeic acid, molar basis","HSV1; paired with Fe^3+, FIG. 8",a little over triple that of caffeic acid
same,pIC50,"HSV1; test compound paired with Fe^3+, single dose-response trial, minimum three concentrations, FIG. 7 and FIG. 8",4.76
Nc1nc2c(ncn2COCCO)c(=O)[nH]1 [acyclovir],activity relative to the caffeic acid and iron chelates,"HSV1; positive control, FIG. 1 trial",about 20 fold
copper(II),inhibition of plaque formation,"HSV1; inorganic ions in the absence of caffeic acid, 83 μM (highest dose tested), FIG. 2 and FIG. 3",38%
"O=C(O)C(O)Cc1ccc(O)c(O)c1 (stereo not drawn) [Danshensu, 3-(3,4-dihydroxyphenyl)-2-hydroxypropanoic acid]",pIC50,"HSV1; Human alphaherpesvirus 1, Vero",4.33
CC(Cc1ccc(O)c(O)c1)C(C)Cc1ccc(O)c(O)c1 (stereo not drawn) [Nordihydroguaiaretic acid],anti-HSV1 activity at highest concentration tested,"HSV1; combined with iron(III), at 330 μM, FIG. 8",no activity
same,anti-HSV1 activity (in words),HSV1; [3],low activity
same,anti-HSV1 activity (in words),"HSV1; test compound paired with Fe^3+, FIG. 7 and FIG. 8, listed as nordihydroguaiaretic acid",no anti-HSV1 activity
Oc1ccccc1O [catechol],anti-HSV1 activity (in words),HSV1; [3],low activity
O=S(=O)(O)c1cc(O)c(O)c(S(=O)(=O)O)c1 [Tiron],anti-HSV1 activity (in words),HSV1; [3],low activity
"[Cl][Fe]([Cl])[Cl] [iron(III), iron(III) chloride]",antiviral activity of the substance by itself (in words),HSV1,no antiviral properties
same,antiviral activity of the substance by itself (in words),HSV1; listed as Iron(III),no detectable antiviral activity
NCCc1ccc(O)c(O)c1 [dopamine],anti-HSV1 activity (in words),HSV1; [3],low activity
"O=C(O)C=Cc1ccc(O)c(O)c1 [caffeic acid, 3,4-dihydroxycinnamic acid]",cell viability,Vero cells,≥ 90%
same,effect on HSV2 (in words),HSV2,minimal effect
same,effect on Zika virus (in words),Zika virus,unaffected
same,effect on Reovirus (in words),reovirus type 3,unaffected
same,effect on wild type VSV (in words),[1],minimal effect
same,effect on VSV-Ebola pseudotype (in words),VSV-Ebola pseudotype,minimal effect
same,effect on Rhinovirus (in words),Rhinovirus 14,unaffected
same,pEC50,"HSV1; Human alphaherpesvirus 1, Vero, FIG. 1, inorganic ions added at half molar ratio to caffeic acid (2:1 organic:inorganic), caffeic acid alone = average of two separate tests, read-out: HSV1 EC50 (inhibition of plaque formation)",1.73
same,pIC50,HSV1; [4],4.18
same,antiviral activity of the substance by itself (in words),HSV1,weak antiviral properties
same,antiviral activity of the substance by itself (in words),HSV1; listed as Caffeic acid,minimal effect
same,effect on vaccinia virus (in words),[2],minimal effect
O=C(/C=C/c1ccc(O)c(O)c1)O[C@H](Cc1ccc(O)c(O)c1)C(=O)O [rosmarinic acid],pIC50,HSV1; [4],4.00
caffeic acid+sulfate,anti-HSV1 activity compared with caffeic acid alone,"HSV1; FIG. 1, ion at half molar ratio to caffeic acid",no increased activity over caffeic acid alone
"O=C(O)c1ccc(O)c(O)c1 [3,4-dihydroxybenzoic acid]",anti-HSV1 activity (in words),HSV1; [3],low activity
"O=C(O)C=Cc1ccc(O)cc1O [2,4-dihydroxycinnamic acid]",anti-HSV1 activity (in words),HSV1; [3],inactivity
"O=C(O)Cc1ccc(O)c(O)c1 [3,4-dihydroxylphenylacetic acid]",pIC50,HSV1; [4],4.00
